Reference: US5852008A, “Heteroatom substituted benzoyl derivatives that enhance synaptic response mediated by receptors” (The Regents of the University of California, priority 1995, dated 1998)
Entries after “also recorded” stand apart in the source; their conditions may differ.

Tests used:
[1] = test system: AMPA receptors; experiment: Field EPSP in rat hippocampal slices (field CA1): amplitude and area of AMPA receptor-mediated synaptic responses; format: cell-based, rat (Sprague-Dawley)
Experimental: The physiological effects of invention compounds can be tested in vitro with slices of rat hippocampus as follows. Excitatory responses (field EPSPs) are measured in hippocampal slices which are maintained in a recording chamber continuously perfused with artificial cerebrospinal fluid (ACSF).
To conduct these tests, the hippocampus was removed from anesthetized, 2 month old Sprague-Dawley rats and in vitro slices (400 micrometers thick) were prepared and maintained in an interface chamber at 35° C. using conventional techniques [see, for example, Dunwiddie and Lynch, J. Physiol. Vol. 276: 353-367 (1978)]. The chamber was constantly perfused at 0.5 ml/min with ACSF containing (in mM): NaCl 124, KCl 3, KH2 PO4 1.25, MgSO4 2.5, CaCl2 3.4, NaHCO3 26, glucose 10 and L-ascorbate 2. A bipolar nichrome stimulating electrode was positioned in the dendritic layer (stratum radiatum) of the hippocampal subfield CA1 close to the border of subfield CA3.
Current pulses (0.1 msec) through the stimulating electrode activate a population of the Schaffer-commissural (SC) fibers which arise from neurons in the subdivision CA3 and terminate in synapses on the dendrites of CA1 neurons. Activation of these synapses causes them to release the transmitter glutamate. Glutamate binds to the postsynaptic AMPA receptors which then transiently open an associated ion channel and permit a sodium current to enter the postsynaptic cell. This current results in a voltage in the extracellular space (the field excitatory postsynaptic potential or field "EPSP") which is recorded by a high impedance recording electrode positioned in the middle of the stratum radiatum of CA1.
For the experiments summarized in FIG. 1, the intensity of the stimulation current was adjusted to produce half-maximal EPSPs (typically about 1.5-2.0 mV). Paired stimulation pulses were given every 40 sec with an interpulse interval of 200 msec (see below). The field EPSPs of the second response were digitized and analyzed to determine amplitude, half-width, and response area. If the responses were stable for 15-30 minutes (baseline), test compounds were added to the perfusion lines for a period of about 15 minutes. The perfusion was then changed back to regular ACSF.
Paired-pulse stimulation was used since stimulation of the SC fibers, in part, activates interneurons which generate an inhibitory postsynaptic potential (IPSP) in the pyramidal cells of CA1. This feed forward IPSP typically sets in after the EPSP reaches its peak. It accelerates the repolarization and shortens the decay phase of the EPSP, and thus could partially mask the effects of the test compounds. One of the relevant features of the feed-forward IPSP is that it can not be reactivated for several hundred milliseconds following a stimulation pulse. This phenomenon can be employed to advantage to eliminate IPSP by delivering paired pulses separated by 200 milliseconds and using the second ("primed") response for data analysis.
These effects are mirrored in the field EPSP, as reported in the literature [see, for example, Staubli et al., Psychobiology supra; Xiao et al., Hippocampus supra; Staubli et al., Hippocampus Vol. 2: 49-58 (1992)].
The variables set forth in the table refer to the following generic structure: [drawing 33]

[2] = test system: long-term potentiation in CA1 field of hippocampal slices; experiment: Promotion of long-term potentiation (LTP) in CA1 field of hippocampal slices; format: cell-based, rat; settings: 1.5 mM, theta burst stimulation; vs absence of drug, p<0.02; FIG. 3
Experimental: Long-term potentiation (LTP; a stable increase in the EPSP size of single responses after brief periods of high frequency stimulation) was elicited in the CA1 field of hippocampal slices in the absence (see FIG. 3, stippled bars, N=6) and in the presence of 1.5 mM of Invention Compound I (see FIG. 3, striped bars, N=5). In the latter case, the amount of potentiation was determined after washing out the test compound and comparing the response size with that before test compound infusion. Data presented in FIG. 3 show the percent increase in the EPSP amplitude (mean and S.D.) at 40, 60, and 90 minutes after LTP induction.
For these studies, field EPSPs in slices of hippocampus were elicited by single stimulation pulses and recorded by extracellular electrodes as described in Example II. After collecting responses every 40 seconds for 20-30 minutes to establish a baseline, LTP was induced with ten short bursts of pulses delivered to the CA3 axons; each burst consisted of four pulses separated by 10 milliseconds; the interval between the bursts was 200 milliseconds. This pattern of axon stimulation mimics a discharge rhythm observed in the hippocampus of animals engaged in learning and is referred to as the "theta burst stimulation paradigm" [see, for example, Larson and Lynch in Science Vol. 232: 985-988 (1986)]. […]

[3] = test system: AMPA receptor; experiment: Monosynaptic EPSP responses in the hippocampus of anesthetized rats after intraperitoneal injection; format: in vivo, rat (male Sprague-Dawley); settings: i.p. 120-180 mg/kg
Experimental: The time constant for the decay of the EPSP is a measure for the duration of the response.
In these experiments, male Sprague-Dawley rats were anesthetized with urethane (1.7 g/kg) and body temperature was maintained at 37° C. with the use of a heat lamp. A stimulation electrode (two twisted stainless steel wires, 150 μm diameter, insulated with teflon) was placed stereotaxically in the trajectory of the Schaffer collateral (SC) pathway from CA3 to CA1 of the hippocampus (coordinates relative to Bregma: 3.5 mm P., 3.5 mm L., and 3.0-3.7 mm V). A recording electrode (stainless steel, 150 μm diameter, insulated with teflon) was placed in the ipsilateral CA1 field (coordinates relative to Bregma: 3.8 mm P., 2.9 mm L., and 2.2-2.8 mm V.), 100-200 μm ventral to the electrophysiologically-identified CA1 stratum pyramidale (i.e., in the stratum radiatum).
Decay time constants were determined by single exponential fits to the decay phase of the synaptic response and expressed as a percent of the value obtained during the pre-injection control period.

[4] = test system: hippocampal electroencephalogram; experiment: Hippocampal electroencephalogram monitoring for electrographic seizures after i.p. injection; format: in vivo, rat (male Sprague-Dawley); settings: i.p. 120-180 mg/kg
[5] = peripheral administration in humans; cited from earlier work

SMILES	increase in area of the field EPSP ([1]; 100 μM, mean and S.D. of 4 experiments) [%]	increase in response area relative to aniracetam ([1]; 750 μM)	onset and reversibility of effect ([1]; 750 μM, 15 min infusion, washout, FIG. 1)	effect on amplitude, duration (half-width) and area of synaptic response ([1]; 750 μM, 15 min infusion, FIG. 1)	EC50 ([1]; percent increase in field EPSP amplitude, log dose/response, maximal response of 85% increase assumed where solubility was limiting, read-out: EC50 (field EPSP amplitude)) [µM]	degree of stable long-term potentiation [2]	time to reversal of the increased response duration [3] [min]	effect on duration / decay of synaptic responses ([3]; anesthetized rats, FIG. 4)	blood-brain barrier passage ([3]; inferred from EPSP effect)	electrographic seizures [4]	conversion to anisoyl-GABA [5]
O=C(c1ccc2c(c1)OCCO2)N1CC=CCC1 [Invention Compound I]	46±16	nine	the effects occur quickly after infusion (horizontal bar) and reverse upon washout; also recorded: rapid onset of action and was fully reversible upon washout	increases the amplitude and duration (measured as half-width) of synaptic responses; also recorded: much larger effect than does aniracetam at twice the concentration; also recorded: the magnitude of the effects was much greater	500	increases the magnitude of long-term potentiation; also recorded: nearly twice as large; also recorded: facilitate induction of maximal long-term potentiation in vitro	60 to 120	slows the decay rate of synaptic responses; also recorded: rapid increase in the duration of the synaptic response; also recorded: somewhat larger for the second (primed) response; also recorded: reversibly prolong synaptic responses in the hippocampus	sufficient amounts of the test compound cross the blood-brain barrier	in no case did injections of Invention Compound I produce electrographic seizures	–
COc1ccc(C(=O)N2CCCC2=O)cc1 [aniracetam, N-anisoyl-2-pyrrolidinone]	–	–	–	–	–	–	–	–	–	–	about 80%
